Target: T1, human GlyT1c transporter (Homo sapiens, UniProt P48067)
T1 construct: expressed in transfected cells; host or cells: CHO cells (recombinant; line hGlyT1c_5_CHO is named for the uptake assay)
T1 sequence (P48067 1-706): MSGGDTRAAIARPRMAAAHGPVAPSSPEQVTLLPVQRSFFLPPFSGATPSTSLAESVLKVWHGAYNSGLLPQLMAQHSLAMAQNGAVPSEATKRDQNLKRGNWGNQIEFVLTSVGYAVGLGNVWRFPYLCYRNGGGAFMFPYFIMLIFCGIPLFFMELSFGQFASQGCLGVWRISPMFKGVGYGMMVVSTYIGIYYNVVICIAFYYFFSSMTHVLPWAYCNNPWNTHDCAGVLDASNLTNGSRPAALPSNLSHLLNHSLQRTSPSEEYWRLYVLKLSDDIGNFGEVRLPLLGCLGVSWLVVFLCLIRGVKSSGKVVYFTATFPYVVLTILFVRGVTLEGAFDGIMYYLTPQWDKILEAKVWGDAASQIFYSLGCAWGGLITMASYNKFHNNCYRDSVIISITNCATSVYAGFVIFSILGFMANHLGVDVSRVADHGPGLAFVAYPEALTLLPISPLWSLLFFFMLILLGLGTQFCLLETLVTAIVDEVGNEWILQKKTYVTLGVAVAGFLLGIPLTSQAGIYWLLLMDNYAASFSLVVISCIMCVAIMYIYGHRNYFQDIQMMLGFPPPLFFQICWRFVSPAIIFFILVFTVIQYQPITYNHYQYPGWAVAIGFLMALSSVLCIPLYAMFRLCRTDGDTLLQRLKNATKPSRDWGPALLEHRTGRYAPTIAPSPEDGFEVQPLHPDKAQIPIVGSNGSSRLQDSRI
Assay: Radioligand binding assay using recombinant CHO cell membranes expressing human GlyT1
Conditions: radioligand binding to human GlyT1c transporter-expressing membranes
Description: 2. Radioligand binding assays using recombinant CHO cell membranes expressing human GlyT1: […]

Cc1nc(N[C@H]2CN(S(=O)(=O)c3cn(C)cn3)C[C@@H]2c2ccc(F)cc2)cc(C(F)(F)F)n1 [Example 615, N-{(3R,4S)-4-(4-fluorophenyl)-1-[(1-methyl-1H-imidazol-4-yl)sulfonyl]pyrrolidin-3-yl}-2-methyl-6-(trifluoromethyl)pyrimidin-4-amine] and Cc1nc(Cl)cc(N[C@H]2CN(S(=O)(=O)c3cn(C)cn3)C[C@@H]2c2ccc(F)cc2)n1 [Example 690, 6-chloro-N-{(3R,4S)-4-(4-fluorophenyl)-1-[(1-methyl-1H-imidazol-4-yl)sulfonyl]pyrrolidin-3-yl}-2-methylpyrimidin-4-amine] cannot be ordered by Ki: at most 1 µM for the first, at most 1 µM for the second.

Cn1cnc(S(=O)(=O)N2C[C@@H](Nc3ccccc3Cl)[C@H](c3ccccc3)C2)c1 (relative stereo) [Example 73, trans-N-(2-chlorophenyl)-1-[(1-methyl-1H-imidazol-4-yl)sulfonyl]-4-phenylpyrrolidin-3-amine] and Cn1cnc(S(=O)(=O)N2C[C@@H](NC(=O)c3ccc(Cl)cc3)[C@H](c3ccccc3)C2)c1 (relative stereo) [Example 16, 4-chloro-N-{trans-1-[(1-methyl-1H-imidazol-4-yl)sulfonyl]-4-phenylpyrrolidin-3-yl}benzamide] cannot be ordered by Ki: at most 10 µM for the first, at most 1 µM for the second.

Cn1cnc(S(=O)(=O)N2C[C@@H](NC(=O)c3ccc(C(F)(F)F)c(Cl)c3)[C@H](c3ccc(F)cc3)C2)c1 (relative stereo) [Example 63, 3-chloro-N-{trans-4-(4-fluorophenyl)-1-[(1-methyl-1H-imidazol-4-yl)sulfonyl]pyrrolidin-3-yl}-4-(trifluoromethyl)benzamide] and Cn1cnc(S(=O)(=O)N2C[C@@H](Nc3ccc(Cl)c(OC(F)(F)F)c3)[C@H](c3ccc(F)cc3)C2)c1 (relative stereo) [Example 306, trans-N-[4-chloro-3-(trifluoromethoxy)phenyl]-4-(4-fluorophenyl)-1-[(1-methyl-1H-imidazol-4-yl)sulfonyl]pyrrolidin-3-amine] cannot be ordered by Ki: at most 0.1 µM for the first, at most 0.1 µM for the second.

Cn1cnc(S(=O)(=O)N2C[C@H](Nc3ccc(Cl)c(C(F)(F)F)c3)[C@@H](c3cocn3)C2)c1 [Example 753] and Cn1cnc(S(=O)(=O)N2C[C@@H](Nc3ccc(F)c(OC(F)(F)F)c3)[C@H](c3ncccc3F)C2)c1 (relative stereo) [Example 768, Trans-4-(3-fluoropyridin-2-yl)-N-[4-fluoro-3-(trifluoromethoxy)phenyl]-1-[(1-methyl-1H-imidazol-4-yl)sulfonyl]pyrrolidin-3-amine] cannot be ordered by Ki: at most 1 µM for the first, at most 0.1 µM for the second.

CCCC(F)(F)CN[C@H]1CN(S(=O)(=O)c2cn(C)cn2)C[C@@H]1c1ccc(F)cc1 [Example 734, (3R,4S)-N-(2,2-difluoropentyl)-4-(4-fluorophenyl)-1-[(1-methyl-1H-imidazol-4-yl)sulfonyl]pyrrolidin-3-amine] and COCCCNC[C@@H]1CN(S(=O)(=O)c2cn(C)cn2)C[C@H]1c1ccc(F)cc1 (relative stereo) [Example 597, N-({trans-4-(4-fluorophenyl)-1-[(1-methyl-1H-imidazol-4-yl)sulfonyl]pyrrolidin-3-yl}methyl)-3-methoxypropan-1-amine] cannot be ordered by Ki: at most 0.1 µM for the first, at most 10 µM for the second.

COCC(C)NC(=O)[C@@H]1CN(S(=O)(=O)c2cn(C)cn2)C[C@H]1c1ccc(F)cc1 (stereo partly drawn) [Example 582, (3S,4R)-4-(4-fluorophenyl)-N-[1-methoxypropan-2-yl]-1-[(1-methyl-1H-imidazol-4-yl)sulfonyl]pyrrolidine-3-carboxamide] and CC(C)OCCNC[C@@H]1CN(S(=O)(=O)c2cn(C)cn2)C[C@H]1c1ccc(F)cc1 (relative stereo) [Example 599, N-({trans-4-(4-fluorophenyl)-1-[(1-methyl-1H-imidazol-4-yl)sulfonyl]pyrrolidin-3-yl}methyl)-2-(propan-2-yloxy)ethanamine] cannot be ordered by Ki: at most 10 µM for the first, at most 10 µM for the second.

CCCS(=O)(=O)N1C[C@@H](Nc2cccc(C#N)c2)[C@H](c2ccccc2)C1 (relative stereo) [Example 132, 3-{[trans-4-phenyl-1-(propylsulfonyl)pyrrolidin-3-yl]amino}benzonitrile] and CCCS(=O)(=O)N1C[C@@H](NC(=O)c2cc(Cl)cc(Cl)c2)[C@H](c2ccccc2)C1 (relative stereo) [Example 126, 3,5-dichloro-N-[trans-4-phenyl-1-(propylsulfonyl)pyrrolidin-3-yl]benzamide] cannot be ordered by Ki: at most 10 µM for the first, at most 10 µM for the second.

Cn1cnc(S(=O)(=O)N2C[C@H](Nc3nccc(C(F)(F)F)c3F)[C@@H](c3ccc(F)cc3)C2)c1 [Example 796, 3-fluoro-N-{(3R,4S)-4-(4-fluorophenyl)-1-[(1-methyl-1H-imidazol-4-yl)sulfonyl]pyrrolidin-3-yl}-4-(trifluoromethyl)pyridin-2-amine] and Cn1cnc(S(=O)(=O)N2C[C@@H](C(=O)Nc3cc(C(F)(F)F)ccn3)[C@H](c3ccc(F)cc3)C2)c1 (relative stereo) [Example 369, Trans-4-(4-fluorophenyl)-1-[(1-methyl-1H-imidazol-4-yl)sulfonyl]-N-[4-(trifluoromethyl)pyridin-2-yl]pyrrolidine-3-carboxamide] cannot be ordered by Ki: at most 0.1 µM for the first, at most 1 µM for the second.

COCCOCCN[C@H]1CN(S(=O)(=O)c2cn(C)cn2)C[C@@H]1c1ccccc1 [Example 666, (3R,4S)-N-[2-(2-methoxyethoxy)ethyl]-1-[(1-methyl-1H-imidazol-4-yl)sulfonyl]-4-phenylpyrrolidin-3-amine] and Cc1cc(CN[C@H]2CN(S(=O)(=O)c3cn(C)cn3)C[C@@H]2c2ccccc2)sc1C [Example 455, (3R,4S)-N-[(4,5-dimethylthiophen-2-yl)methyl]-1-[(1-methyl-1H-imidazol-4-yl)sulfonyl]-4-phenylpyrrolidin-3-amine] cannot be ordered by Ki: at most 10 µM for the first, at most 0.1 µM for the second.

Cn1cnc(S(=O)(=O)N2C[C@@H](CNCc3ccccc3)[C@H](c3ccc(F)cc3)C2)c1 (relative stereo) [Example 315, N-benzyl-1-{trans-4-(4-fluorophenyl)-1-[(1-methyl-1H-imidazol-4-yl)sulfonyl]pyrrolidin-3-yl}methanamine] and Cn1cnc(S(=O)(=O)N2C[C@@H](Nc3cccc(Cl)c3)[C@H](c3ccc(F)cc3)C2)c1 [Example 325, (3S,4R)-N-(3-chlorophenyl)-4-(4-fluorophenyl)-1-[(1-methyl-1H-imidazol-4-yl)sulfonyl]pyrrolidin-3-amine] cannot be ordered by Ki: at most 1 µM for the first, at most 1 µM for the second.

Cc1nc(N[C@H]2CN(S(=O)(=O)c3cn(C)cn3)C[C@@H]2c2ccccc2)nn1C [Example 575, 1,5-dimethyl-N-{(3R,4S)-1-[(1-methyl-1H-imidazol-4-yl)sulfonyl]-4-phenylpyrrolidin-3-yl}-1H-1,2,4-triazol-3-amine] and Cn1cnc(S(=O)(=O)N2C[C@@H](Nc3cc(C(F)(F)F)ncn3)[C@H](C3CCCCO3)C2)c1 (relative stereo) [Example 687, N-[Trans-1-[(1-methyl-1H-imidazol-4-yl)sulfonyl]-4-(tetrahydro-2H-pyran-2-yl)pyrrolidin-3-yl]-6-(trifluoromethyl)pyrimidin-4-amine] cannot be ordered by Ki: at most 10 µM for the first, at most 0.1 µM for the second.

Same assay, conditions: radioligand binding, recombinant CHO cell membranes expressing human GlyT1c

Work on Cn1cnc(S(=O)(=O)N2C[C@@H](Nc3cccc(C(F)(F)F)c3)[C@H](C3CCOC3)C2)c1 (relative stereo) [Example 827, trans-1-[(1-methyl-1H-imidazol-4-yl)sulfonyl]-4-(tetrahydrofuran-3-yl)-N-[3 - (trifluoromethyl)phenyl]pyrrolidin-3-amine] yielded a Ki of at most 1 µM.
